PubChem BioAssay (NCI)
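Briefly, cells in 96-well plates were exposed to five compound concentrations for 48 h, and endpoints were estimated by linear interpolation. At the TGI there is no net growth.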

Assays:
Test in all cases: inhibition of tumour cell growth, NCI panel, 48 h
UO-31 renal = system: UO-31 renal
IGROV1 ovarian = system: IGROV1 ovarian
COLO 205 colon = system: COLO 205 colon
HCT-116 colon = system: HCT-116 colon
HCC-2998 colon = system: HCC-2998 colon
KM12 colon = system: KM12 colon
OVCAR-3 ovarian = system: OVCAR-3 ovarian
LOX IMVI melanoma = system: LOX IMVI melanoma
SN12C renal = system: SN12C renal
SK-OV-3 ovarian = system: SK-OV-3 ovarian
SF-268 CNS = system: SF-268 CNS
SK-MEL-28 melanoma = system: SK-MEL-28 melanoma
CAKI-1 renal = system: CAKI-1 renal
A549 NSCLC = system: A549 NSCLC
NCI-H522 lung = system: NCI-H522 lung
HOP-92 NSCLC = system: HOP-92 NSCLC
UACC-257 melanoma = system: UACC-257 melanoma
LXFL 529 NSCLC = system: LXFL 529 NSCLC
NCI-H226 lung = system: NCI-H226 lung
SF-295 CNS = system: SF-295 CNS
HL-60(TB) leukemia = system: HL-60(TB) leukemia
RXF 393 renal = system: RXF 393 renal
DLD-1 colon = system: DLD-1 colon
ACHN renal = system: ACHN renal
SK-MEL-2 melanoma = system: SK-MEL-2 melanoma
U251 CNS = system: U251 CNS
KM20L2 colon = system: KM20L2 colon
786-0 renal = system: 786-0 renal
M14 melanoma = system: M14 melanoma
K-562 leukemia = system: K-562 leukemia
M19-MEL melanoma = system: M19-MEL melanoma
HT29 colon = system: HT29 colon
CCRF-CEM leukemia = system: CCRF-CEM leukemia
OVCAR-8 ovarian = system: OVCAR-8 ovarian
TK-10 renal = system: TK-10 renal
HOP-62 NSCLC = system: HOP-62 NSCLC
NCI-H23 lung = system: NCI-H23 lung
SNB-78 CNS = system: SNB-78 CNS
RPMI-8226 leukemia = system: RPMI-8226 leukemia
RXF-631 renal = system: RXF-631 renal
NCI-H460 lung = system: NCI-H460 lung
XF 498 CNS = system: XF 498 CNS
SF-539 CNS = system: SF-539 CNS
SNB-19 CNS = system: SNB-19 CNS
A498 renal = system: A498 renal
DMS 273 small cell lung = system: DMS 273 small cell lung
DMS 114 small cell lung = system: DMS 114 small cell lung
SR leukemia = system: SR leukemia
MALME-3M melanoma = system: MALME-3M melanoma
OVCAR-4 ovarian = system: OVCAR-4 ovarian
SNB-75 CNS = system: SNB-75 CNS
MOLT-4 leukemia = system: MOLT-4 leukemia
SW-620 colon = system: SW-620 colon
OVCAR-5 ovarian = system: OVCAR-5 ovarian
HOP-18 NSCLC = system: HOP-18 NSCLC
SK-MEL-5 melanoma = system: SK-MEL-5 melanoma
EKVX NSCLC = system: EKVX NSCLC
UACC-62 melanoma = system: UACC-62 melanoma

Measured: TGI

NC1(C(=O)O)CCC(C(=O)O)CC1 (stereo not drawn)
> 100 µM: all assays above
